Drawing on patent publication US9593123B2, “Triazolo[4,5-D]pyrimidine derivatives” (Hoffmann-La Roche Inc., priority 2013, dated 2017), this text covers EC50 for 25 compounds.

A value given as a limit tells only on which side of the number the result lay.

In one assay the target is human CB2 receptor (Homo sapiens (Human), UniProt P34972). In words: cAMP assay, CHO cells expressing human CB2 receptors. It is filed as cell-based. The conditions noted are these: functional cAMP assay, read-out: CB2 hcAMP EC50. The method, then:
(§1) CHO cells expressing human CB1 or CB2 receptors are seeded 17-24 hours prior to the experiment 50.000 cells per well in a black 96 well plate with flat clear bottom (Corning Costar #3904) in DMEM (Invitrogen No. 31331), 1×HT supplement, with 10% fetal calf serum and incubated at 5% CO2 and 37° C. in a humidified incubator. The growth medium was exchanged with Krebs Ringer Bicarbonate buffer with 1 mM IBMX and incubated at 30° C. for 30 min. Compounds were added to a final assay volume of 100 μl and incubated for 30 min at 30° C. Using the cAMP-Nano-TRF detection kit the assay (Roche Diagnostics) was stopped by the addition of 50 μl lysis reagent (Tris, NaCl, 1.5% Triton X100, 2.5% NP40, 10% NaN3) and 50 μl detection solutions (20 μM mAb Alexa700-cAMP 1:1, and 48 μM Ruthenium-2-AHA-cAMP) and shaken for 2 h at room temperature. The time-resolved energy transfer is measured by a TRF reader (Evotec Technologies GmbH), equipped with a ND:YAG laser as excitation source. The plate is measured twice with the excitation at 355 nm and at the emission with a delay of 100 ns and a gate of 100 ns, total exposure time 10 s at 730 (bandwidth 30 nm) or 645 nm (bandwidth 75 nm), respectively. The FRET signal is calculated as follows: FRET=T730-Alexa730-P(T645-B645) with P=Ru730-B730/Ru645-B645, where T730 is the test well measured at 730 nM, T645 is the test well measured at 645 nm, B730 and B645 are the buffer controls at 730 nm and 645 nm, respectively. cAMP content is determined from the function of a standard curve spanning from 10 μM to 0.13 nM cAMP.
(§2) EC50 values were determined using Activity Base analysis (ID Business Solution, Limited). The EC50 values for a wide range of cannabinoid agonists generated from this assay were in agreement with the values published in the scientific literature.
Background: Changes in cAMP serve as a functional read-out for many G protein-coupled receptors.

The target of the next assay is human CB1 receptor (Homo sapiens (Human), UniProt P21554). In words: cAMP assay, CHO cells expressing human CB1 receptors. The conditions noted are these: functional cAMP assay, read-out: CB1 hcAMP EC50. It is filed as cell-based. On the procedure: as §1, §2
Sequence of human CB1 receptor (P21554 whole entry): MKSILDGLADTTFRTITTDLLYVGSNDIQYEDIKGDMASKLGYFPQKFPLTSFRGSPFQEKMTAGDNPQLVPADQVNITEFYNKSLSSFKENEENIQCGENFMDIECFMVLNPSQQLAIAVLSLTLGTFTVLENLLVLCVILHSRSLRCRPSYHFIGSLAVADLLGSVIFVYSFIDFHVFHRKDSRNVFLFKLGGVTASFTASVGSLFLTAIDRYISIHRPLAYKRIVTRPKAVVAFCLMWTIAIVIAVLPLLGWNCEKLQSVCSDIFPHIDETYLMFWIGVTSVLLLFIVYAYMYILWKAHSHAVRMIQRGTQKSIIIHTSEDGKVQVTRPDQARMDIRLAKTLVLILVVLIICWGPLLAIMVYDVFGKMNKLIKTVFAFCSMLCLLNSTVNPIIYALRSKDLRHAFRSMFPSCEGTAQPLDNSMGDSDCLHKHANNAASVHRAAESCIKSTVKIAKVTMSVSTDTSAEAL

Sequence of human CB2 receptor (P34972 whole entry): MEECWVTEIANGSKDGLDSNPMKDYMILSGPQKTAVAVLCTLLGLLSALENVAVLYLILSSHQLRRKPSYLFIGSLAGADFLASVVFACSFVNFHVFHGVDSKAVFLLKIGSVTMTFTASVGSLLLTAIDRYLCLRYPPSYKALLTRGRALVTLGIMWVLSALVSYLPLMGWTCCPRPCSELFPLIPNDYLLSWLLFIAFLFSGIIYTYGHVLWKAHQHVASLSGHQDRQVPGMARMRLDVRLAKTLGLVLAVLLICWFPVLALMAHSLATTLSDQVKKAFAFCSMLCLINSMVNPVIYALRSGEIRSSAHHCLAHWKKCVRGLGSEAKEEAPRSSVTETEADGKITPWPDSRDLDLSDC

Take `CC(=O)N[C@H]1CCN(c2nc(O[C@@H](C)C(F)(F)F)nc3c2nnn3Cc2ccccc2Cl)C1` [Example 80, N-[(3S)-1-[3-[(2-Chlorophenyl)methyl]-5-[(2S)-1,1,1-trifluoropropan-2-yl]oxytriazolo [4,5-d]pyrimidin-7-yl]pyrrolidin-3-yl]acetamide]: the EC50 is 159 nM at human CB2 receptor and over 10000 nM on human CB1 receptor.

`COc1ccc(Cn2nnc3c(N4CCC(F)(F)C4)nc(C4CC4)nc32)cc1` [Example 2, 5-Cyclopropyl-7-(3,3-difluoropyrrolidin-1-yl)-3-[(4-methoxyphenyl)methyl]triazolo [4,5-d]pyrimidine]: the EC50 on human CB2 receptor was 6.4 nM; at human CB1 receptor, over 10000 nM.

Turning to `Cc1nonc1Cn1nnc2c(N3CCC(F)(F)C3)nc(NC(C)(C)C)nc21` [Example 26, N-tert-Butyl-7-(3,3-difluoropyrrolidin-1-yl)-3-[(4-methyl-1,2,5-oxadiazol-3-yl)methyl]triazolo[4,5-d]pyrimidin-5-amine], the figures for the EC50 on human CB2 receptor and on human CB1 receptor were 1 nM and over 10000 nM, respectively.

Take `CC(C)(C)Nc1nc(N2CCC(F)(F)C2)c2nnn(Cc3ccccc3C(F)(F)F)c2n1` [Example 22, N-tert-Butyl-7-(3,3-difluoropyrrolidin-1-yl)-3-[[2-(trifluoromethyl)phenyl]methyl]triazolo[4,5-d]pyrimidin-5-amine]: the EC50 is 2.1 nM on human CB2 receptor and over 10000 nM at human CB1 receptor.

`C=C(C)c1nc(N2CC[C@H](O)C2)c2nnn(Cc3ccccc3Cl)c2n1` [Example 6, (3S)-1-[3-[(2-Chlorophenyl)methyl]-5-prop-1-en-2-yltriazolo[4,5-d]pyrimidin-7-yl]pyrrolidin-3-ol]: the values for the EC50 at human CB2 receptor and on human CB1 receptor were 3.6 nM and over 10000 nM, respectively.

For `CC(C)Oc1nc(N2CC[C@H](O)C2)c2nnn(Cc3nnnn3C)c2n1` [Example 64, (3S)-1-[3-[(1-Methyltetrazol-5-yl)methyl]-5-propan-2-yloxytriazolo[4,5-d]pyrimidin-7-yl]pyrrolidin-3-ol], the EC50 on human CB2 receptor is 174 nM; on human CB1 receptor it was over 10000 nM.

Turning to `CCCOc1nc(N2CCC(F)(F)C2)c2nnn(Cc3ccccc3Cl)c2n1` [Example 59, 3-[(2-Chlorophenyl)methyl]-7-(3,3-difluoropyrrolidin-1-yl)-5-propoxytriazolo[4,5-d]pyrimidine], the values for the EC50 at human CB2 receptor and on human CB1 receptor were 0.9 nM and over 10000 nM, respectively.

As for `Cc1noc(Cn2nnc3c(N4CC[C@](C)(O)C4)nc(N4CCOCC4)nc32)n1` [Example 35, (3S)-3-Methyl-1-[3-[(3-methyl-1,2,4-oxadiazol-5-yl)methyl]-5-morpholin-4-yltriazolo[4,5-d]pyrimidin-7-yl]pyrrolidin-3-ol], the values for the EC50 on human CB2 receptor and on human CB1 receptor were 10.8 nM and over 10000 nM, respectively.

Consider `CC(C)Oc1nc(N2CC[C@H](O)C2)c2nnn(Cc3ccccc3Cl)c2n1` [Example 62, (3S)-1-[3-[(2-Chlorophenyl)methyl]-5-propan-2-yloxytriazolo[4,5-d]pyrimidin-7-yl]pyrrolidin-3-ol], for which the EC50 on human CB2 receptor was 14.8 nM; at human CB1 receptor it was over 10000 nM.

Consider `O[C@H]1CCN(c2nc(OCC(F)(F)F)nc3c2nnn3Cc2ccccc2Cl)C1` [Example 60, (3S)-1-[3-[(2-Chlorophenyl)methyl]-5-(2,2,2-trifluoroethoxy)triazolo[4,5-d]pyrimidin-7-yl]pyrrolidin-3-ol], for which the EC50 at human CB2 receptor is 0.8 nM; on human CB1 receptor, over 10000 nM.

Regarding `COCC(C)Oc1nc(N2CCC(F)(F)C2)c2nnn(Cc3ccccc3Cl)c2n1` (centres unmarked) [Example 57, 3-[(2-Chlorophenyl)methyl]-7-(3,3-difluoropyrrolidin-1-yl)-5-(1-methoxypropan-2-yloxy)triazolo[4,5-d]pyrimidine], the EC50 on human CB2 receptor was 8.8 nM; at human CB1 receptor, over 10000 nM.

In the case of `Clc1ccccc1Cn1nnc2c(N3CCCCC3)nc(N3CCCCC3)nc21` [Example 7, 3-[(2-Chlorophenyl)methyl]-5,7-di(piperidin-1-yl)triazolo[4,5-d]pyrimidine], the EC50 was 9.2 nM at human CB2 receptor and over 10000 nM on human CB1 receptor.

Take `Cc1nonc1Cn1nnc2c(N3CCC(F)(F)C3)nc(OCC(C)(C)C)nc21` [Example 67, 3-[[7-(3,3-Difluoropyrrolidin-1-yl)-5-(2,2-dimethylpropoxy)triazolo[4,5-d]pyrimidin-3-yl]methyl]-4-methyl-1,2,5-oxadiazole]: the EC50 at human CB2 receptor was 1.7 nM; on human CB1 receptor it was over 10000 nM.

For the compound `C[C@@]1(O)CCN(c2nc(N3CCOCC3)nc3c2nnn3Cc2ccccc2S(C)(=O)=O)C1` [Example 38, (3R)-3-Methyl-1-[3-[(2-methylsulfonylphenyl)methyl]-5-morpholin-4-yltriazolo[4,5-d]pyrimidin-7-yl]pyrrolidin-3-ol], the figures for the EC50 on human CB2 receptor and at human CB1 receptor were 312 nM and over 10000 nM, respectively.

In the case of `Cc1nnc(Cn2nnc3c(N4CCC(F)(F)C4)nc(O[C@@H](C)C(F)(F)F)nc32)o1` [Example 71, 2-[[7-(3,3-Difluoropyrrolidin-1-yl)-5-[(2S)-1,1,1-trifluoropropan-2-yl]oxytriazolo[4,5-d]pyrimidin-3-yl]methyl]-5-methyl-1,3,4-oxadiazole], the EC50 on human CB2 receptor was 214 nM; on human CB1 receptor, over 10000 nM.

Regarding `CCNc1nc(N2CCC(F)(F)C2)c2nnn(Cc3ccccc3Cl)c2n1` [Example 8, 3-[(2-Chlorophenyl)methyl]-7-(3,3-difluoropyrrolidin-1-yl)-N-ethyltriazolo[4,5-d]pyrimidin-5-amine], the results for the EC50 at human CB2 receptor and on human CB1 receptor were 4.5 nM and over 10000 nM, respectively.

For `COc1ccc(Cn2nnc3c(N4CC[C@@](C)(O)C4)nc(NC(C)(C)C)nc32)cc1` [Example 31, (3R)-1-[5-(tert-Butylamino)-3-[(4-methoxyphenyl)methyl]triazolo[4,5-d]pyrimidin-7-yl]-3-methylpyrrolidin-3-ol], the EC50 on human CB2 receptor is 56 nM; at human CB1 receptor, over 10000 nM.

Take `CC(C)S(=O)(=O)c1nc(N2CCC(F)(F)C2)c2nnn(Cc3ccccc3Cl)c2n1` [Example 88, 3-[(2-Chlorophenyl)methyl]-7-(3,3-difluoropyrrolidin-1-yl)-5-propan-2-ylsulfonyltriazolo[4,5-d]pyrimidine]: the results for the EC50 at human CB2 receptor and on human CB1 receptor were 1.7 nM and over 10000 nM, respectively.

As to `CC(C)Sc1nc(N2CCC(F)(F)C2)c2nnn(Cc3ccccc3Cl)c2n1` [Example 84, 3-[(2-Chlorophenyl)methyl]-7-(3,3-difluoropyrrolidin-1-yl)-5-propan-2-ylsulfanyltriazolo[4,5-d]pyrimidine], the values for the EC50 on human CB2 receptor and on human CB1 receptor were 2.3 nM and 80 nM, respectively.

Consider `C[C@H](Oc1nc(N2CCC(F)(F)C2)c2nnn(Cc3nnnn3C3CC3)c2n1)C(F)(F)F` [Example 76, 3-[(1-Cyclopropyltetrazol-5-yl)methyl]-7-(3,3-difluoropyrrolidin-1-yl)-5-[(2S)-1,1,1-trifluoropropan-2-yl]oxytriazolo[4,5-d]pyrimidine], for which the values for the EC50 on human CB2 receptor and on human CB1 receptor were 17.7 nM and over 10000 nM, respectively.

Consider `CC(=O)N[C@H]1CCN(c2nc(NC(C)(C)C)nc3c2nnn3Cc2ccccc2Cl)C1` [Example 97, N-[(3S)-1-[5-(tert-butylamino)-3-[(2-chlorophenyl)methyl]triazolo[4,5-d]pyrimidin-7-yl]pyrrolidin-3-yl]acetamide], for which the values for the EC50 on human CB2 receptor and at human CB1 receptor were 38 nM and over 10000 nM, respectively.

Regarding `CN(c1nc(N2CCC(F)(F)C2)c2nnn(Cc3ccccc3Cl)c2n1)C(C)(C)C` [Example 15, N-tert-Butyl-3-[(2-chlorophenyl)methyl]-7-(3,3-difluoropyrrolidin-1-yl)-N-methyltriazolo[4,5-d]pyrimidin-5-amine], the results for the EC50 on human CB2 receptor and at human CB1 receptor were 2.2 nM and 336 nM, respectively.

Regarding `FC1(F)CCN(c2nc(N3CCC3)nc3c2nnn3Cc2ccccc2Cl)C1` [Example 9, 5-(Azetidin-1-yl)-3-[(2-chlorophenyl)methyl]-7-(3,3-difluoropyrrolidin-1-yl)triazolo [4,5-d]pyrimidine], the EC50 on human CB2 receptor worked out at 1.6 nM; at human CB1 receptor, 363 nM.

Turning to `FC1(F)CCN(c2nc(N3CCCC3)nc3c2nnn3Cc2ccccc2Cl)C1` [Example 10, 3-[(2-Chlorophenyl)methyl]-7-(3,3-difluoropyrrolidin-1-yl)-5-pyrrolidin-1-yltriazolo[4,5-d]pyrimidine], the EC50 at human CB2 receptor stood at 2.9 nM; at human CB1 receptor it was 217 nM.

As for `CC(C)(C)Nc1nc(N2CCC(F)(F)C2)c2nnn(Cc3ncccc3Cl)c2n1` [Example 24, N-tert-Butyl-3-[(3-chloropyridin-2-yl)methyl]-7-(3,3-difluoropyrrolidin-1-yl)triazolo [4,5-d]pyrimidin-5-amine], the figures for the EC50 at human CB2 receptor and on human CB1 receptor were 3.4 nM and over 10000 nM, respectively.

As a reminder, the EC50 is the midpoint of the concentration-response curve.
